Literature values, collected in US10596120B2, “Pharmaceutical compositions” (Boehringer Ingelheim International GmbH, priority 2011, dated 2020).

Conditions: metformin on its own, in the diabetic

SMILES: CN(C)C(=N)N=C(N)N [metformin]
- average improvement in the HbA1c value: 1.0-1.5%
